# Results as given in US6472348B1, “Pyridone derivatives and herbicides” (Kumiai Chemical Industry Co., Ltd., priority 1996, dated 2002).
# Tests used:
# Type in all cases: in vivo
# [1] = system: barnyardgrass (Ec); test: Test Example 1: herbicidal effects by paddy field soil treatment; settings: 100 g of the active ingredient per 10 ares, 21st day after the application, index 0-5 of Table 47;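 note: grade of growth control; 5 = at least 90%; 4 = 70 to 90%; 3 = 50 to 70%; 2 = 30 to 50%; 1 = 10 to 30%; 0 = under 10%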
# Method in brief: (§1)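 Herbicidal effect was scored against a graded standard 21 days after treatment. Seeds were sown in puddled, leveled paddy soil flooded to 3 cm depth, and the active ingredient was applied at 100 g per 10 ares before greenhouse culture.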
# [2] = system: bulrush (Sc); test: as above; settings: 100 g of the active ingredient per 10 ares, 21st day after the application, index 0-5 of Table 47;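 note: grade of growth control; 5 = at least 90%; 4 = 70 to 90%; 3 = 50 to 70%; 2 = 30 to 50%; 1 = 10 to 30%; 0 = under 10%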
# Method in brief: as §1
# [3] = system: monochoria (Mo); test: as above; settings: 100 g of the active ingredient per 10 ares, 21st day after the application, index 0-5 of Table 47;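 note: grade of growth control; 5 = at least 90%; 4 = 70 to 90%; 3 = 50 to 70%; 2 = 30 to 50%; 1 = 10 to 30%; 0 = under 10%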
# Method in brief: as §1
# [4] = system: Digitaria ciliaris (Di); test: Test Example 2: herbicidal effects by upland field soil treatment; settings: 100 g of the active ingredient per 10 ares;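 note: grade of growth control; 5 = at least 90%; 4 = 70 to 90%; 3 = 50 to 70%; 2 = 30 to 50%; 1 = 10 to 30%; 0 = under 10%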
# Description: (§2) (Test on Herbicidal Effects by Upland Field Soil Treatment)
# [5] = system: barnyardgrass (Ec); test: as above; settings: 100 g of the active ingredient per 10 ares
# Description: as §2
# [6] = system: common lambsquarters (Ch); test: as above; settings: 100 g of the active ingredient per 10 ares
# Description: as §2
# [7] = system: pale smartweed (Po); test: as above; settings: 100 g of the active ingredient per 10 ares
# Description: as §2
# [8] = system: rice flatsedge (Ci); test: as above; settings: 100 g of the active ingredient per 10 ares
# Description: as §2
# [9] = system: slender amaranth (Am); test: as above; settings: 100 g of the active ingredient per 10 ares
# Description: as §2
# [10] = system: Diaitaria ciliaris (Di); test: Test Example 3: herbicidal effects by upland field foliage treatment; design: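 grade of growth control; 5 = at least 90%; 4 = 70 to 90%; 3 = 50 to 70%; 2 = 30 to 50%; 1 = 10 to 30%; 0 = under 10%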; settings: 100 g of the active ingredient per 10 ares, evaluated on the 14th day after treatment
# Method in brief: (§3)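 Using plants cultured for 2 weeks in a greenhouse from seed sown in soil-covered sand (pots 120 cm^2), the compounds were applied to foliage, and weed control was graded by standard criteria 14 days thereafter.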
# [11] = system: barnyardgrass (Ec); test: as above; design: scale not given here; settings: 100 g of the active ingredient per 10 ares, evaluated on the 14th day after treatment
# Method in brief: as §3
# [12] = system: common lambsquarters (Ch); test: as above; design: scale not given here; settings: 100 g of the active ingredient per 10 ares, evaluated on the 14th day after treatment
# Method in brief: as §3
# [13] = system: pale smartweed (Po); test: as above; design: scale not given here; settings: 100 g of the active ingredient per 10 ares, evaluated on the 14th day after treatment
# Method in brief: as §3
# [14] = system: rice flatsedge (Ci); test: as above; design: scale not given here; settings: 100 g of the active ingredient per 10 ares, evaluated on the 14th day after treatment
# Method in brief: as §3
# [15] = system: slender amaranth (Am); test: as above; design: scale not given here; settings: 100 g of the active ingredient per 10 ares, evaluated on the 14th day after treatment
# Method in brief: as §3
# [16] = system: cotton (Go); test: Test Example 4: crop plant selectivity by upland field soil treatment (cotton), phytotoxicity; design: scale not given here; settings: dose 6.3 g ai/10 a, evaluated 21st day after application
# Protocol: (§4) (Test on Crop Plant Selectivity by Upland Field Soil Treatment)
# (§5) In a plastic pot (surface area: 600 cm^2) filled with sand, cotton (Go), Diaitaria ciliaris (Di), green foxtail (Se), pale smartweed (Po), slender amaranth (Am), common lambsquarters (Ch) and China jute (Ab) were sown and covered with soil. […] The plants were then cultured in a green house, and the evaluation of the herbicidal effects and phytotoxicity was conducted on the 21st day after the application in accordance with the standards as identified in Table 47. Symbol—represents “not tested”.
# [17] = system: China jute (Ab); test: Test Example 4: crop plant selectivity by upland field soil treatment (cotton), herbicidal effects; design: scale not given here; settings: dose 6.3 g ai/10 a, evaluated 21st day after application
# Protocol: as §4, §5
# [18] = system: common lambsquarters (Ch); test: as above; design: scale not given here; settings: dose 6.3 g ai/10 a, evaluated 21st day after application
# Protocol: as §4, §5
# [19] = system: green foxtail (Se); test: as above; design: scale not given here; settings: dose 6.3 g ai/10 a, evaluated 21st day after application
# Protocol: as §4, §5
# [20] = system: pale smartweed (Po); test: as above; design: scale not given here; settings: dose 6.3 g ai/10 a, evaluated 21st day after application
# Protocol: as §4, §5
# [21] = system: slender amaranth (Am); test: as above; design: scale not given here; settings: dose 6.3 g ai/10 a, evaluated 21st day after application
# Protocol: as §4, §5
# [22] = system: wheat (Tr); test: Test Example 5: crop plant selectivity by upland field soil treatment (wheat), phytotoxicity; design: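 grade of crop injury; 5 = at least 90%; 4 = 70 to 90%; 3 = 50 to 70%; 2 = 30 to 50%; 1 = 10 to 30%; 0 = under 10%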; settings: dose 6.3 g ai/10a, 21st day after application
# Protocol: as §4
# (§6) In a plastic pot (surface area: 600 cm^2) filled with sand, wheat (Tr), Diaitaria ciliaris (Di), green foxtail (Se), pale smartweed (Po), slender amaranth (Am), common lambsquarters (Ch) and China jute (Ab) were sown and covered with soil. […] The plants were then cultured in a green house, and the evaluation of the herbicidal effects and phytotoxicity was conducted on the 21st day after the application in accordance with the standards as identified in Table 47. Symbol—represents “not tested”.
# [23] = system: China jute (Ab); test: Test Example 5: crop plant selectivity by upland field soil treatment (wheat), herbicidal effects; design: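 grade of growth control; 5 = at least 90%; 4 = 70 to 90%; 3 = 50 to 70%; 2 = 30 to 50%; 1 = 10 to 30%; 0 = under 10%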; settings: dose 6.3 g ai/10a, 21st day after application
# Protocol: as §4, §6
# [24] = system: common lambsquarters (Ch); test: as above; design: scale not given here; settings: dose 6.3 g ai/10a, 21st day after application
# Protocol: as §4, §6
# [25] = system: green foxtail (Se); test: as above; design: scale not given here; settings: dose 6.3 g ai/10a, 21st day after application
# Protocol: as §4, §6
# [26] = system: pale smartweed (Po); test: as above; design: scale not given here; settings: dose 6.3 g ai/10a, 21st day after application
# Protocol: as §4, §6
# [27] = system: slender amaranth (Am); test: as above; design: scale not given here; settings: dose 6.3 g ai/10a, 21st day after application
# Protocol: as §4, §6
# [28] = system: soybean (Gl); test: Test Example 6: crop plant selectivity by upland field soil treatment (soybean), phytotoxicity; design: scale not given here; settings: dose 6.3 g ai/10a, 21st day after application
# Protocol: as §4
# (§7) In a plastic pot (surface area: 600 cm^2) filled with sand, soybean (Gl), Diaitaria ciliaris (Di), green foxtail (Se), Johnsongrass (So), pale smartweed (Po), slender amaranth (Am), common lambsquarters (Ch) and China jute (Ab) were sown and covered with soil. […] The plants were then cultured in a green house, and the evaluation of the herbicidal effects and phytotoxicity was conducted on the 21st day after the application in accordance with the standards as identified in Table 47. Symbol—represents “not tested”.
# [29] = system: China jute (Ab); test: Test Example 6: crop plant selectivity by upland field soil treatment (soybean), herbicidal effects; design: scale not given here; settings: dose 6.3 g ai/10a, 21st day after application
# Protocol: as §4, §7
# [30] = system: common lambsquarters (Ch); test: as above; design: scale not given here; settings: dose 6.3 g ai/10a, 21st day after application
# Protocol: as §4, §7
# [31] = system: green foxtail (Se); test: as above; design: scale not given here; settings: dose 6.3 g ai/10a, 21st day after application
# Protocol: as §4, §7
# [32] = system: pale smartweed (Po); test: as above; design: scale not given here; settings: dose 6.3 g ai/10a, 21st day after application
# Protocol: as §4, §7
# [33] = system: slender amaranth (Am); test: as above; design: scale not given here; settings: dose 6.3 g ai/10a, 21st day after application
# Protocol: as §4, §7
# [34] = system: corn (Ze); test: Test Example 7: crop plant selectivity by upland field soil treatment (corn), phytotoxicity; design: scale not given here; settings: dose 6.3 g ai/10a, 21st day after application
# Protocol: as §4
# (§8) In a plastic pot (surface area: 600 cm^2) filled with sand, corn (Ze), green foxtail (Se), pale smartweed (Po), slender amaranth (Am), common lambsquarters (Ch) and China jute (Ab) were sown and covered with soil. […] The plants were then cultured in a green house, and the evaluation of the herbicidal effects and phytotoxicity was conducted on the 21st day after the application in accordance with the standards as identified in Table 47.
# [35] = system: China jute (Ab); test: Test Example 7: crop plant selectivity by upland field soil treatment (corn), herbicidal effects; design: scale not given here; settings: dose 6.3 g ai/10a, 21st day after application
# Protocol: as §4, §8
# [36] = system: common lambsquarters (Ch); test: as above; design: scale not given here; settings: dose 6.3 g ai/10a, 21st day after application
# Protocol: as §4, §8
# [37] = system: green foxtail (Se); test: as above; design: scale not given here; settings: dose 6.3 g ai/10a, 21st day after application
# Protocol: as §4, §8
# [38] = system: pale smartweed (Po); test: as above; design: scale not given here; settings: dose 6.3 g ai/10a, 21st day after application
# Protocol: as §4, §8
# [39] = system: slender amaranth (Am); test: as above; design: scale not given here; settings: dose 6.3 g ai/10a, 21st day after application
# Protocol: as §4, §8
# [40] = 21st day after the application, index 0-5 of Table 47
# [41] = evaluated on the 21st day after application
Compound,Herbicidal effects Ec [1],Herbicidal effects Sc [2],Herbicidal effects Mo [3],Herbicidal effects Di [10],Herbicidal effects Ec [11],Herbicidal effects Ch [12],Herbicidal effects Po [13],Herbicidal effects Ci [14],Herbicidal effects Am [15],Phytotoxicity Go [16],Herbicidal effects Ab [17],Herbicidal effects Ch [18],Herbicidal effects Se [19],Herbicidal effects Po [20],Herbicidal effects Am [21],other results
C=C(C)COc1cc(-c2ccc(C(F)(F)F)n(C)c2=O)c(F)cc1Cl [1-151],5,5,5,5,5,5,5,5,5,1,5,5,5,5,5,"Herbicidal effects Di [4, 40]: 5; Herbicidal effects Ec [5, 40]: 5; Herbicidal effects Ch [6, 40]: 5; Herbicidal effects Po [7, 40]: 5; Herbicidal effects Ci [8, 40]: 5; Herbicidal effects Am [9, 40]: 5; Phytotoxicity Tr [22]: 2; Herbicidal effects Ab [23]: 5; Herbicidal effects Ch [24]: 5; Herbicidal effects Se [25]: 5; Herbicidal effects Po [26]: 5; Herbicidal effects Am [27]: 5; Phytotoxicity Gl [28]: 0; Herbicidal effects Ab [29]: 5; Herbicidal effects Ch [30]: 5; Herbicidal effects Se [31]: 5; Herbicidal effects Po [32]: 5; Herbicidal effects Am [33]: 5"
Cn1c(C(F)(F)F)ccc(-c2cc(OCCF)c(Cl)cc2F)c1=O [1-172],5,5,5,5,5,5,5,5,5,1,5,5,5,5,5,"Herbicidal effects Di [4, 41]: 5; Herbicidal effects Ec [5, 41]: 5; Herbicidal effects Ch [6, 41]: 5; Herbicidal effects Po [7, 41]: 5; Herbicidal effects Ci [8, 41]: 5; Herbicidal effects Am [9, 41]: 5; Phytotoxicity Ze [34]: 2; Herbicidal effects Ab [35]: 5; Herbicidal effects Ch [36]: 5; Herbicidal effects Se [37]: 5; Herbicidal effects Po [38]: 5; Herbicidal effects Am [39]: 5"
